Laboratory results from patent publication US10258602B2 (Ocera Therapeutics, Inc., priority 2007, dated 2019).
Where two headings read alike, the source gives them in different places.

Legend:
[1] = molecular target: human growth hormone secretagogue receptor (hGHS-R1a) (Homo sapiens, UniProt Q92847); experiment: Competitive radioligand binding assay (ghrelin receptor), standard method A
[2] = molecular target: GHS-R1a receptor (human ghrelin receptor) (Homo sapiens, UniProt Q92847); experiment: Aequorin functional assay (ghrelin receptor), standard method B; assay type: cell-based
From the text: B. Aequorin Functional Assay (Ghrelin Receptor)
See also U.S. patent application Ser. Nos. 11/149,512 and 11/149,731. (LePoul, E.; et al. J. Biomol. Screen. 2002, 7, 57-65; Bednarek, M. A.; et al. J. Med. Chem. 2000, 43, 4370-4376; Palucki, B. L.; et al. Bioorg. Med. Chem. Lett. 2001, 11, 1955-1957.) Functional activity at the gherlin receptor for representative compounds of the present invention is presented in the Examples.

[3] = Pharmacokinetic analysis (oral bioavailability, elimination half-life) in the rat; assay type: in vivo; conditions: oral administration, 8 mg/kg dose, HPLC-MS
From the text: D. Pharmacokinetic Analysis of Representative Compounds of the Invention
The pharmacokinetic behavior of compound of the invention can be ascertained by methods well known to those skilled in the art. (Wilkinson, G. R. “Pharmacokinetics: The Dynamics of Drug Absorption, Distribution, and Elimination” in Goodman & Gilman's The Pharmacological Basis of Therapeutics, Tenth Edition, Hardman, J. G.; Limbird, L. E., Eds., McGraw Hill, Columbus, Ohio, 2001, Chapter 1.) The following method was used to investigate the pharmacokinetic parameters (elimination half-life, total plasma clearance, etc.) for intravenous, subcutaneous and oral administration of compounds of the present invention. See also U.S. patent application Ser. No. 11/149,512 and Ser. No. 11/149,731 and Intl. Pat. Appl. No. PCT/US2007/017905.
The table below presents oral bioavailability and elimination half-life data in the rat for representative compounds of the present invention. The parameters were determined by HPLC-MS after oral administration of an 8 mg/kg dose of the compound, except for compound 822 where a 2 mg/kg dose was used.

[4] = tested on: fasted rats; experiment: Gastric emptying in fasted rat model, standard method E; assay type: in vivo; conditions: average where repeated
Protocol: E. Gastric Emptying in Fasted Rat Model
To examine the effects of compounds of the invention in a model for gastroparesis, compounds were evaluated for possible effects on gastric emptying in fasted rats. This model is used to determine the potential of compounds of the invention to promote motility in fasted rats.
• 1. Overnight-fasted rats (male, Wistar, 200 g, n=5/group) were given a meal (2 mL) of methylcellulose (2%) by intragastric gavage. The meal was labeled with phenol red (0.05%). • 2. Test articles (dosed at various concentrations, typically 1, 3, 10, 30 mg/kg), vehicle and positive control (metoclopramide, a 5-HT ligand and prokinetic agent currently prescribed for the treatment of GI disorders, including gastroparesis) were administered by oral gavage immediately after the meal (time=0). • 3. […] Total phenol red remaining in the stomach was quantified by a colorimetric method at 560 nm. • 5. A 30% or more increase in gastric emptying (as compared to the vehicle control) was considered significant. • 6. One-way ANOVA, Dunnet's post-hoc statistical test was applied Results
The effects of representative compounds of the invention in the rat gastric emptying model described in standard method E are provided in the following table. In cases where an experiment was conducted multiple times, the average of the individual results is presented.

[5] = tested on: human plasma; experiment: Plasma protein binding, human plasma (equilibrium dialysis); assay type: in vitro ADME
From the text: J. Plasma Protein Binding
The pharmacokinetic and pharmacodynamic properties of drugs are largely a function of the reversible binding of drugs to plasma or serum proteins such as albumin and α1-acid glycoprotein. In general, only unbound drug is available for diffusion or transport across cell membranes, and for interaction at the pharmacological target. On the other hand, drugs with low plasma protein binding generally have large volumes of distribution and rapid clearance since only unbound drug is available for glomerular filtration and, in some cases, hepatic clearance. Thus, the extent of plasma protein binding can influence efficacy, distribution and elimination. The ideal range for plasma protein binding is in the range of 87-98% for most drug products.
Protein binding studies were performed using human plasma. Briefly, 96-well microplates were used to incubate various concentrations of the test article for 60 min at 37° C. Bound and unbound fractions are separated by equilibrium dialysis, where the concentration remaining in the unbound fraction is quantified by LC-MS or LC-MS-MS analysis. […].
The table below presents protein binding data for representative compounds of the present invention in both human and rat plasma.

[6] = tested on: rat plasma; experiment: Plasma protein binding, rat plasma; assay type: in vitro ADME
[7] = binding activity at the human ghrelin receptor, standard method A
[8] = functional activity at the human ghrelin receptor, standard method B (Aequorin)

GHS-R1a receptor (human ghrelin receptor), sequence (Q92847 whole entry): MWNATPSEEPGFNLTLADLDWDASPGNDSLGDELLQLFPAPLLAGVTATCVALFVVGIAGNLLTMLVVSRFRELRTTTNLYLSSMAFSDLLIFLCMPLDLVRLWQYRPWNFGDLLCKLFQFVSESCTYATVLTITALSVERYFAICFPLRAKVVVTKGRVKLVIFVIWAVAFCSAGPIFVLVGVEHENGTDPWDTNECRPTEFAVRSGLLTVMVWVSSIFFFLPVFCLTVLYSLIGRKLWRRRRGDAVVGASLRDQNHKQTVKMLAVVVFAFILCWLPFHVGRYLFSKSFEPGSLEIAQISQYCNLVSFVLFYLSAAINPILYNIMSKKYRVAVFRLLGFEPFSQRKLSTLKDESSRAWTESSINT
human growth hormone secretagogue receptor (hGHS-R1a), sequence (Q92847 whole entry): as above

Row | Compound | Ki [1, 7] | EC50 [2, 8] | Elimination Half-life (t1/2, rat, min) [3] | Oral Bioavailability (rat, % F) [3] | Percent Increase in Gastric Emptying After Oral Administration ([4]; dose 3 mg/kg) | also measured
1 | CC(C)C[C@H]1NC(=O)[C@@H](C)N(C)C(=O)[C@H](C2CC2)NC[C@@H](C)Oc2ccccc2CCCNC1=O [Compound 968] | ≤ 100 nM | ≤ 400 nM | 103 min | 26 % F |  | 
2 | CC(C)CC1NC(=O)C(C)N(C)C(=O)C(C2CC2)NC(C)C(C)Oc2ccccc2CCCNC1=O (stereo not drawn) [Compound 819] | ≤ 10 nM |  | 116 min | 12 % F | 21% | Percent Increase in Gastric Emptying After Oral Administration ([4]; dose 1 mg/kg): 9%; Percent Increase in Gastric Emptying After Oral Administration ([4]; dose 10 mg/kg): 18%; Human Plasma Protein Binding (%) ([5]; test concentration 3 μg/mL): 95.2%; Rat Plasma Protein Binding (%) ([6]; test concentration 3 μg/mL): 98.2%
3 | CC1CNC(C2CC2)C(=O)N(C)C(C)C(=O)NC(Cc2ccc(O)c(F)c2)C(=O)NCCCC2CCCCC2O1 (mixture of isomers) [Compound 832] | ≤ 1 nM |  |  |  | 13% | Human Plasma Protein Binding (%) ([5]; test concentration 3 μg/mL): 88.9%; Rat Plasma Protein Binding (%) ([6]; test concentration 3 μg/mL): 97.3%
4 | C[C@@H]1CN[C@@H](C2CC2)C(=O)N(C)[C@H](C)C(=O)N[C@H](Cc2ccc(Cl)cc2)C(=O)NCCCc2ccc(F)cc2O1 [Compound 877] |  |  |  | 15 % F |  | Ki [1]: ≤ 100 nM; EC50 [2]: ≤ 50 nM; half-life ([3]; plasma, read-out: Elimination Half-life (t1/2, rat, min)): 255 min
5 | CC1CNC(C2CC2)C(=O)N(C)C(C)C(=O)NC(CC(C)(C)C)C(=O)NCCCC2CCCCC2O1 (mixture of isomers) [Compound 833] | ≤ 10 nM |  |  |  | 6% | Human Plasma Protein Binding (%) ([5]; test concentration 3 μg/mL): 77.4%; Rat Plasma Protein Binding (%) ([6]; test concentration 3 μg/mL): 94.0%
6 | CC1CNC(C2CC2)C(=O)N(C)C(C)C(=O)NC(CC(C)(C)C)C(=O)NCCCc2ccccc2O1 (stereo not drawn) [Compound 1043] | ≤ 100 nM | ≤ 100 nM |  |  |  | 
7 | CC1C(=O)NC(Cc2ccc(O)cc2)C(=O)NCCCC2CCCCC2OCCNC(C2CC2)C(=O)N1C (stereo not drawn) [Compound 1118] | ≤ 10 nM |  |  |  |  | Human Plasma Protein Binding (%) ([5]; test concentration 3 μg/mL): 92.8%; Rat Plasma Protein Binding (%) ([6]; test concentration 3 μg/mL): 95.5%

Continued, in another order:

Row | Ki [1, 7] | EC50 [2, 8] | Elimination Half-life (t1/2, rat, min) [3] | Oral Bioavailability (rat, % F) [3] | Compound | Percent Increase in Gastric Emptying After Oral Administration ([4]; dose 3 mg/kg) | also measured
8 | ≤ 100 nM | ≤ 100 nM | 23 min | 4 % F | CC(C)C[C@H]1NC(=O)[C@@H](C)N(C)C(=O)[C@H](C2CCCCC2)NC[C@@H](C)Oc2cccnc2CCCNC1=O [Compound 1061] |  | 
9 | ≤ 100 nM | ≤ 100 nM |  |  | C[C@@H]1CNC(=O)[C@@H](Cc2ccc(F)cc2)NC(=O)[C@@H](C)N(C)C(=O)[C@H](C2CC2)NC[C@@H](C)Oc2ccccc2C1 [Compound 1033] |  | 
10 | ≤ 1 nM | ≤ 50 nM |  |  | C[C@@H]1CN[C@@H](C2CCCCC2)C(=O)N(C)[C@H](C)C(=O)N[C@H](Cc2ccc(F)cc2)C(=O)NCCCc2ccccc2O1 [Compound 982] |  | 
11 | ≤ 100 nM | ≤ 400 nM |  |  | C[C@@H]1CN[C@@H](C2CC2)C(=O)N(C)[C@H](C)C(=O)N[C@H]([C@H](C)c2ccc(F)cc2)C(=O)NCCCc2ccccc2O1 [Compound 1018] |  | 
12 | ≤ 100 nM | > 400 nM |  |  | C[C@@H]1CN[C@@H](C2CC2)C(=O)N(C)[C@H](C)C(=O)N[C@H](Cc2cccnc2)C(=O)NCCCc2ccccc2O1 [Compound 975] |  | 
13 | ≤ 1 nM | ≤ 50 nM |  |  | C[C@@H]1C(=O)N[C@H](Cc2ccc(F)cc2)C(=O)NCCCc2cccc3c2O[C@H](CC3)CN[C@@H](C2CC2)C(=O)N1C [Compound 1009] |  | 
14 | ≤ 100 nM |  | 238 min | 18 % F | C[C@@H]1CN[C@@H](C2CC2)C(=O)N(C)[C@H](C)C(=O)N[C@H](Cc2ccc(O)cc2)C(=O)N[C@@H](C)CCc2ccccc2O1 [Compound 808] | 37% | Percent Increase in Gastric Emptying After Oral Administration ([4]; dose 1 mg/kg): 18%; Percent Increase in Gastric Emptying After Oral Administration ([4]; dose 10 mg/kg): 40%; Human Plasma Protein Binding (%) ([5]; test concentration 5 μg/mL): 99.9%; Rat Plasma Protein Binding (%) ([6]; test concentration 5 μg/mL): 89.2%
15 | ≤ 100 nM | ≤ 100 nM | 160 min | 26 % F | CC(C)C[C@H]1NC(=O)[C@@H](C)N(C)C(=O)[C@H](C2CC2)NC[C@H]2CCc3cccc(c3O2)CCCNC1=O [Compound 802] | 11% | Percent Increase in Gastric Emptying After Oral Administration ([4]; dose 1 mg/kg): 12%; Percent Increase in Gastric Emptying After Oral Administration ([4]; dose 10 mg/kg): 26%; Human Plasma Protein Binding (%) ([5]; test concentration 1 μg/mL): 93.4%; Rat Plasma Protein Binding (%) ([6]; test concentration 1 μg/mL): 99.8%
